Experimental data: US9072729B2, “Method for treating fibrosis and cancer with imidazolium and imidazolinium compounds” (Agency for Science, Technology and Research, priority 2008, dated 2015)

Tests used:
p53 = assay: Immunostaining and confocal microscopy of p53; assay type: cell-based, human; conditions: HLE, 48 h
Procedure: FIG. 39. IMSs-induced apoptosis was accompanied by accumulation of p53 in the nucleus. HLE cells were treated with the indicated dose of IBN 19 and IBN 24 for 48 h. The treated cells were fixed with 4% formaldehyde, immunostained with anti-p53 (green fluorescence) and DAPI (blue fluorescence), and analysed by confocal microscopy.
For immunostaining, HLE cells were seeded at a density of 1×10^4 in 8 well chamber slide. After 24 h incubation, the cells were replaced with 200 μl fresh 10% DMEM medium and then treated with 60 μM of IBN-15, 90 μM of IBN-19, 90 μM of IBN-24, 30 μM of IBN-25 and 20 μM of IBN-32 and 0.045% DMSO as control for 24 and 48 h. After washing, cells were fixed in 4% formaldehyde for 15 mins and permeabilized with 0.5% Triton X-100 in PBS for 10 mins. The cells were then blocked for 60 min in PBS containing 3% bovine serum albumin and then incubated for 1 h with a mouse antibody against nucleolin (MS-3, Santa Cruz; 1:100 in blocking buffer). After washing extensively with PBS, the cells were then incubated for 1 h at room temperature in dark with a FITC-conjugated antibody against mouse IgG (1:20 ilution). The slides were mounted with a VectaShield medium containing DAPI (Vector Laboratories, Burlingame, Calif.). Microscopy was performed with a Zeiss LSM 510 Meta (upright stand) confocal microscope.

[1] = General toxicity of IMSs in mice; assay type: in vivo; conditions: mouse, in vivo, ip; FVB mice, intraperitoneally every other day for 2 weeks; estimated
Procedure: (§1) IMSs (DPIM and DBZIM) were dissolved in saline, and administered to Friend virus B-Type (FVB) mice (weighing ˜25-30 g) intraperitoneally every other day for 2 weeks. The dosages were 0, 200, 300, 350, 400 and 500 mg/kg for DPIM, and 0, 10, 30, 35, 40 and […] for DBZIM. The injection volume was maintained at 100-160 μl. The mortality rate of mice was assessed after the treatment. The animal experimental protocol was approved by the Institutional Animal Care and Use Committee (IACUC) of Biological Resource Center (BRC) at Biopolis, Singapore.
(§2) In the preliminary toxicity studies, two forms of IMSs were selected for in vivo testing with FVB inbred mice. For DBZIM, the lethal dosage was 50 mg/kg and LD50 was estimated to be 30-40 mg/kg. For DPIM, the lethal dosage was 500 mg/kg and LD50 was ˜300-400 mg/kg.

FVB mice = assay: General toxicity of IMSs in mice; assay type: in vivo; conditions: intraperitoneally every other day for 2 weeks
Procedure: as §1, §2

[2] = test system: col1a1, fibronectin, GFAP, SMAA, TGF-β1, TGFβ RI protein expression; assay: Western blotting of fibrotic marker proteins in HSC T6 cells; assay type: cell-based, rat; conditions: DBZIM 100 μM, TDBZIM 50 μM, 48 h
Procedure: FIG. 8. […] The target proteins were recognized by the respective antibodies, and visualized by the ECL method. The membrane was stripped and re-probed for α-tubulin as the loading control. FIG. 13. […] DPIM (2 mM), EGCG (25 μM) and DBZIM (100 μM) were dissolved in H2O. Alpha-tubulin was used as the loading control. Densitometric measurement of protein band intensity was normalized against the respective vehicle control. (B) Relative densitometric quantification of protein band intensity. The vehicle treated sample was normalized to 1. Protein extracts were prepared by lysing a cell pellet in 10 volumes of boiled 1% sodium dodecyl sulfate (SDS) (90-95° C.) for 10 min for GFAP, or using NE-PER nuclear and cytoplasmic extraction reagents from Pierce (IL, USA) for nuclear proteins, or RIPA (Pierce, Ill., USA) for SMAA, fibronectin, collagen αI(I), TGF-β1 and TGFβ RI. Protein content was quantified using a BCA kit (Pierce, Ill., USA). 15 μg of total protein were resolved in 4-12% gradient SDS/polyacrylamide gel electrophoresis (PAGE) gel, and transferred to a nitrocellular membrane. The membrane was then probed with primary antibodies against GFAP (Dako, Denmark), SMAA (Sigma, USA), procollagen αI(I), fibronectin, c-Jun, c-Fos, JunB, JunD, […] Cruz Biotechnology, CA, USA), NF-κB P65, TGF-β1 and TGFβ RI (Abeam, UK), and detected by horseradish peroxidase-conjugated secondary antibody (Santa Cruz Biotechnology, CA, USA). […] Protein bands were recorded on X-ray film by reacting with ECL chemiluminescence reagents (Amersham Biosciences, NJ, USA). Alpha-tubulin (Abeam, UK) was used as the loading control for total protein, and Tata binding protein (TBP) (Abeam, UK) was used as the loading control for nuclear protein.

GFAP-LacZ transgene = assay: β-galactosidase activity in T6/GFAP-lacZ cells; assay type: cell-based, rat
Procedure: FIG. 12. (a) DBZIM and (b) TDBZIM attenuated GFAP-LacZ transgene as reported by β-galactosidase activity. Stable transfected T6 GFAP-LacZ cells were treated with compounds of 1-300 μM concentrations, and assayed after 24 h and 48 h. The (3-galactosidase activity was normalized to the total protein, and presented as relative value after comparing to the vehicle control. The data were presented as mean and SEM, N=6, *^cP<0.005, and *^dP<0.0005, when compared to the vehicle control.
Beta-galactosidase activity in extracts from T6/GFAP-lacZ cells treated by DBZIM or TDBZIM was measured using a chemiluminescent assay kit (Roche, Mannheim, Germany) in a 96-well plate format, according to the manufacturer's instructions. Briefly, cells were washed twice with ice-cold 1×PBS (pH 7.4), and lysed for 30 min at room temperature in the lysis buffer. The supernatant was collected for assays with a Tecan Sere II plate reader. Protein concentration was determined with a BCA protein assay kit (Pierce, Ill., USA). Specific β-galactosidase activity was obtained by normalizing against total cellular protein content.

[3] = culture medium for human esophageal cancer cells (Hou et al. 2005); cited from earlier work

| Compound | p53 expression and nuclear accumulation (p53) | LD50 at 2 weeks [1] | lethal dosage (FVB mice) | SMAA protein expression [2] | procollagen αI(I) and fibronectin protein expression [2] | further results |
| --- | --- | --- | --- | --- | --- | --- |
| CC(=O)Oc1ccc(C[n+]2ccn(Cc3ccccc3)c2C)cc1.[Cl-] [IBN-19, 1-benzyl-3-(4-acetate-benzyl)-2-methyl-imidazolium chloride] | induced p53 expression and accumulation in the nucleus | – | – | – | – | – |
| CC(C)n1cc[n+](C(C)C)c1.F[B-](F)(F)F [DPIM, 1,3-diisopropylimidazolium tetrafluoroborate] | – | 300 to 400 mg/kg | 500 mg/kg | – | – | – |
| 1,3,5-tris(4-methyl-imidazolium)-linked cyclophane.3Br [TDBZIM] | – | – | – | enhanced | attenuated procollagen αI(I) and fibronectin significantly | suppression of β-galactosidase activity (transient) (GFAP-LacZ transgene; 100 μM, 24 h): 20% |
| Cc1ccc(C[n+]2ccn(Cc3ccccc3)c2)cc1.[Cl-] [IBN-24, 1-benzyl-3-(4-methylbenzyl)-imidazolium chloride] | induced p53 expression and accumulation in the nucleus | – | – | – | – | – |
| (−)-Epigallocatechin gallate [EGCG, reference compound] | – | – | – | – | – | half life in culture medium [3]: 30 min |
| [Br-].c1ccc(Cn2cc[n+](Cc3ccccc3)c2)cc1 [DBZIM, 1,3-bisbenzylimidazolium bromide] | – | 30 to 40 mg/kg | 50 mg/kg | suppressed | attenuated procollagen αI(I) and fibronectin significantly | suppression of β-galactosidase activity (GFAP-LacZ transgene; 100 μM): 25%; suppression of β-galactosidase activity (GFAP-LacZ transgene; 300 μM): 34% |
